Results taken from PMC6273599, “Sesquiterpenoids and Diterpenoids from the Wood of Cunninghamia konishii and Their Inhibitory Activities against NO Production” (Molecules, 2016).
In brackets after ≈: the same amount, converted by molar mass.

Legend:
Type in all cases: cell-based, murine
[1] = system: LPS-stimulated RAW 264.7 cells; experiment: Inhibition of LPS-induced nitric oxide production (Griess nitrite measurement); settings: LPS (100 ng/mL)-stimulated RAW 264.7 cells, 24 h, Griess reaction, mean ± SD of three replicates; for IC50: Mus musculus, RAW264.7, read-out: Inhibition of NO Production IC50
Excerpt: (§1) Nitric oxide (NO) is derived from the oxidation of L-arginine by NO synthase (NOS) and is recognized as a mediator and regulator in biological actions, especially in inflammatory responses. In inflammation and carcinogenesis conditions, there is an increased production of NO by inducible NO synthase (iNOS). Thus, inhibitors of NO might be of therapeutic importance in preventing pathological conditions catalyzed by inflammation. Macrophages contain various chemical mediators that may be responsible for several inflammatory stages and have been expected to be an origin of inflammation. iNOS mainly exists in macrophages and can be induced by pro-inflammatory agents lipopolysaccharides (LPS). […] In this study, the inhibitory activity toward NO production of four sesquiterpenoids (1, 4, 5, and 6) and eight diterpenoids (8–15) was evaluated by measurement of nitrite/nitrate in LPS-stimulated RAW 264.7 cells. To search for the appropriate concentrations for the above assay, these 12 compounds were first tested their cytotoxic activity against the RAW 264.7 cells, and no significant cytotoxic activities were observed under all tested concentrations (Table 3).
(§2) A murine macrophage cell line RAW264.7 (BCRC No. 60001) was obtained from the Bioresources Collection and Research Center (BCRC) of the Food Industry Research and Development Institute (Hsinchu, Taiwan). Cells were maintained in Dulbecco’s Modified Eagle Medium (DMEM, Sigma, St. Louis, MO, USA) supplemented with 10% fetal bovine serum (FBS, Sigma). Cells were cultured in a humidified atmosphere with 5% CO2 at 37 °C and subcultured every three days at a dilution of 1:5 using 0.05% trypsin-0.02% EDTA in Ca^2+-, Mg^2+-free phosphate-buffered saline (DPBS).
The anti-inflammatory activity of compounds was evaluated by using a nitric oxide (NO) inhibitory activity assay. As a stable NO metabolite, production of NO was indirectly determined by Griess reaction to measure the concentration of nitrite in the culture medium. The cells were incubated with test compounds (0, 2.5, 5, 10, 20 and 40 μg/mL) in the presence of LPS (100 ng/mL) at 37 °C for 24 h. Then, cells were dispensed into 96-well plates, and 100 μL of each supernatant was reacted with an equal volume of Griess reagent (1% sulfanilamide, 0.1% naphthyl ethylenediamine dihydrochloride and 5% phosphoric acid) and incubated at room temperature for 10 min. Absorbance was then measured at 540 nm using a Micro-Reader (Molecular Devices Orleans Drive, Sunnyvale, CA, USA). A standard curve was generated, using freshly prepared 0–100 μM […] dissolved in assay buffer, to quantitate unknown nitrite in samples.
(§3) The data is expressed as means ± standard errors (SE). The IC50 values were calculated from the dose curves using a non-linear regression algorithm (SigmaPlot 8.0; SPSS Inc., Chicago, IL, USA, 2002). Statistical evaluation was carried out by one-way analysis of variance (ANOVA followed by Scheffe’s multiple range tests).

[2] = Cell viability / cytotoxicity (MTT); settings: mouse, RAW 264.7 macrophage cells, RAW 264.7 cells, 24 h with test compound in presence of 100 ng/mL LPS, mean ± SD of three replicates
Excerpt: as §1, §2
(§4) Cells (2 × 10^5) were cultured in 96-well plate containing DMEM supplemented with 10% FBS. After 24 h of cells incubation, cells were cultured with test compounds in the presence of 100 ng/mL LPS (lipopolysaccharide) for 24 h. Untreated cells served as the control. After that, the cells were washed twice with DPBS and 100 μL of 0.5 mg/mL MTT was added to each well for further 2 h incubation at 37 °C. The medium was then discarded, and the colored crystals of produced formazan were dissolved in 100 μL dimethyl sulfoxide (DMSO). After 30 min incubation, the absorbance was measured at 570 nm on a microplate reader (Molecular Devices).
as §3

RAW 264.7 cells = experiment: Cell viability / cytotoxicity (MTT); settings: 24 h with test compound in presence of 100 ng/mL LPS, mean ± SD of three replicates
Excerpt: as §1, §2, §4, §3

Which IC50 [1] does the source give for `CC1CCC2(C)CC3CCC12C(O)C3(C)C` (stereo not drawn) [Compound 1, 2α-hydroxy-3,3,6α,9β-tetramethyltricyclo[4,3,2^1,4]undecane] here?
The IC50 was over 20 µg/mL.

What about the IC50 at 24 h [2] of the same molecule?
The IC50 at 24 h was over 20 µg/mL.

What does the source list for `CC(=O)OC(C)(C)C1CCC2(C)CCCC(C)(O)C2C1` (stereo not drawn) [Compound 4, 11-acetoxyeudesman-4β-ol]?
IC50 [1]: > 20 µg/mL; IC50 at 24 h [2]: > 20 µg/mL

Which results are given for `CC(=O)OC(C)(C)C1CCC2(C)CCCC(C)(O)C2C1` (stereo not drawn) [Compound 5, 11-acetoxyeudesman-4α-ol]?
Inhibition of NO Production IC50 [1]: >20 µg/mL; Cytotoxicity IC50 (RAW 264.7 cells): >20 µg/mL

For `Cc1ccc(C(C)C)c2c1[C@H](O)[C@@H](O)[C@@H](C)C2` [Compound 6, 2α,3β-dihydroxy-4β-methyl-6,8,10-cadinatriene], which IC50 [1] is on record?
Its IC50 is over 20 µg/mL.

And the IC50 at 24 h [2]?
The IC50 at 24 h was over 20 µg/mL.

With `C=C[C@]1(C)C=C2CC[C@@H]3[C@](C)(CCC[C@@]3(C)C(=O)O)[C@H]2CC1` [Compound 8, sandaracopimaric acid] as the molecule, how does the IC50 [1] read?
The IC50 was over 20 µg/mL.

What about the IC50 at 24 h [2] of the same molecule?
The IC50 at 24 h was over 20 µg/mL.

With `C=CC(C)=CCC1C(=C)CCC2C(C)(CO)CCCC12C` (centres unmarked) [Compound 9, elliotinol] as the molecule, how does the IC50 [1] read?
The IC50 was over 20 µg/mL.

What about the IC50 at 24 h [2] of the same molecule?
The IC50 at 24 h was over 20 µg/mL.

Which results are given for `CC(=O)C=CC1C(C)(O)CCC2C(C)(C)CCCC21C` (stereo not drawn) [Compound 10, 8α-hydroxy-15,16-bisnorlabda-11-en-13-one]?
IC50 [1]: 11.4 ± 0.62 µg/mL (≈ 41.1 µM); IC50 at 24 h [2]: > 20 µg/mL

With `C=CC(=C)CCC1C(C)(O)CCC2C(C)(C=O)CCCC12C` (centres unmarked) [Compound 11] as the molecule, how does the IC50 [1] read?
Its IC50 is over 20 µg/mL.

And the IC50 at 24 h [2]?
Its IC50 at 24 h is over 20 µg/mL.

Which IC50 [1] does the source give for `C=C1CCC2C(C)(CO)CCCC2(C)C1C=CC(C)=O` (centres unmarked) [Compound 12] here?
The IC50 was over 20 µg/mL.

What about the IC50 at 24 h [2] of the same molecule?
Its IC50 at 24 h is over 20 µg/mL.

Which IC50 [1] does the source give for `C=CC1(C)OC2(C)CCC3C(C)(CO)CCCC3(C)C2CC1O` (centres unmarked) [Compound 13] here?
Its IC50 is over 20 µg/mL.

What about the IC50 at 24 h [2] of the same molecule?
Its IC50 at 24 h is over 20 µg/mL.

Which IC50 [1] does the source give for `C=C1CCC2C(C)(C(=O)O)CCCC2(C)C1CC1OCC=C1C` (centres unmarked) [Compound 14] here?
Its IC50 is over 20 µg/mL.

What about the IC50 at 24 h [2] of the same molecule?
Its IC50 at 24 h is over 20 µg/mL.

With `C=CC(C)(O)CCC1C(C)(O)CCC2C(C)(C)CCCC21C` (centres unmarked) [Compound 15] as the molecule, how does the IC50 [1] read?
The IC50 was 13.1 ± 0.55 µg/mL (≈ 42.4 µM).

What about the IC50 at 24 h [2] of the same molecule?
The IC50 at 24 h was over 20 µg/mL.

Which IC50 [1] does the source give for `COc1ccc2c(c1)c(CC(=O)O)c(C)n2C(=O)c1ccc(Cl)cc1` [indomethacin, reference compound] here?
The IC50 was 65.4 ± 1.8 µg/mL (≈ 183 µM).

And the IC50 at 24 h [2]?
Its IC50 at 24 h is over 100 µg/mL.
